Literature values, collected in patent US20220151997A1, “USE OF EPALRESTAT IN PREPARATION OF PANCREATIC CANCER DRUGS AND METHOD FOR VERIFYING INHIBITION EFFECT OF EPALRESTAT ON SECRETION OF EXOSOMES FROM PANCREATIC CANCER CELLS” (Affiliated Hospital of Nantong University, priority 2019, published 2022).

Tested on: prostate cancer cells
Conditions: by inhibiting the Ras signaling pathway and hnRNP H1 expression

CCCC[C@@H](C)/C=C(C)/C=C(\C)C(=O)NC1=C[C@@](O)(/C=C/C=C/C=C/C(=O)NC2=C(O)CCC2=O)[C@@H]2O[C@@H]2C1=O [Manumycin A]
production and secretion of the exosomes: inhibits
